Results: patent US20210252159A1, “CONJUGATES OF CARTILAGE-HOMING PEPTIDES” (priority 2018, published 2021)

Key:
[1] = Biodistribution in mice of stable peptide-TAA conjugate by whole body autoradiography (QWBA); type: in vivo; conditions: 100 nmol IV, 3 hours and 24 hours
Description: Peptide(SEQ ID NO: 105)-^14C-Cys-TAA (38, the radiolabeled conjugate prepared in EXAMPLE 7) (“peptide(SEQ ID NO: 105)-^14C-Cys” is disclosed as SEQ ID NO: 512) or ^14C-Cys-TAA was resuspended in 5% DMSO in water. The amount of radioactivity per μ1 of solution was measured using liquid scintillation counting (LSC). Each compound was administered intravenously to mice at a dose of 12.4 μCi (100 nmol) and allowed to circulate for the designated time intervals. The mice were then humanely euthanized and carcasses were frozen in dry ice chilled hexane. QWBA was performed and quantified as described. […]
Quantification of the radioactivity detected in WBA samples was evaluated by measuring the pixel density/mm^2 (“SI”: Signal Intensity/Area−background) using AIDA Image Analyzer v 5.1 Whole Body Autoradiography Professional software (Raytest). […] For quantification, all visible knee or IVD (intervertebral disc) tissues for one rodent across all collected sections were measured and averaged together to generate one knee or IVD value per animal. […] To collect quantified values for other tissues, ROIs were drawn around blood in the heart ventricle, spinotrapezius muscle, the liver, or the kidney (including cortex and medulla) in all sections in which the tissue was observed and then averaged to yield one value per tissue per animal. […]

IL-6 = type: in vivo, rats; conditions: Dex 1274 and 127 nmol/kg IV; dCIC 1274 nmol/kg IA or 127 nmol/kg IV; conjugate 127, 51 and 13 nmol/kg IV; four hours after IL-1β
Description: In this example, an IL-1β Challenge rat model was used for the evaluation of peptides-drug conjugates. In this model, IL-1β is injected intra-articularly (i.e., IA) into a single knee joint to induce an inflammatory state that can be quantified by measuring IL-6 levels in joint lavage fluid (EXAMPLE 30). The primary goal of using this model was to induce a localized inflammatory state in the joint, as opposed to the systemic inflammation induced in other models, as a way to differentiate localized delivery of dCIC to the joint from systemic administration of the steroid. […] CBC counts were used to assess any reductions in various white blood cell levels, which are established markers of systemic exposure to glucocorticoids. […]
IL-6 was measured in knee lavage fluid using a Luminex assay and levels were normalized to total protein in the lavage fluid (FIG. 24). […] Terminal synovial fluid was collected from all animals and analyzed by Luminex 200 for IL-6 cytokine concentrations using EMD Milliplex MAP Rat Cytokine/Chemokine Magnetic Panel ([sequence]-65K). […] Thymus and spleen were harvested and their organ weights determined.

[2] = IL-1β challenge rat model, dose-ranging study: CBC, organ weights, tolerability; type: in vivo, rats
Description: IL-6 was measured in knee lavage fluid using a Luminex assay and levels were normalized to total protein in the lavage fluid (FIG. 24). Assessment of the PD inflammatory marker IL-6 in the knee joints of rats challenged with IL-1β was performed. Terminal synovial fluid was collected from all animals and analyzed by Luminex 200 for IL-6 cytokine concentrations using EMD Milliplex MAP Rat Cytokine/Chemokine Magnetic Panel ([…]-65K). […] Doses are listed as nmol/kg The masses of these doses are given below in TABLE 16. Two hours and forty-five minutes (i.e., 2.75 hrs) after administration of the test agents, animals were gently heated and blood was drawn from the tail vein for CBC analysis. Animals were then anesthetized with inhaled isoflurane and injected with 30 ng of IL-1β into the right knee (except for no IL-1β group). Four hours after administration of IL-1β (seven hours after administration of test agent) the animals were euthanized. Blood was drawn for a second CBC analysis and the right knee was lavaged for detection of IL-6 in the lavage fluid using a Luminex assay. Thymus and spleen were harvested and their organ weights determined.
In the same animals for which IL-6 secretion was measured, CBC data (e.g., lymphocyte counts) were also analyzed (FIG. 25) at an early time-point, 2.75 hrs post administration of the test article (FIG. 25A), and at euthanasia 7 hrs post administration (FIG. 25B). All treatments were administered as described above for the measurement of IL-6 secretion.
All treatments and test articles were administered as described above, except for an additional treatment group that received 510 nmol/kg of the peptide-drug conjugate peptide(SEQ ID NO: 105)-DMA-dCIC.

[3] = IL-1β challenge rat model, follow-up study: WBC, lymphocyte and monocyte counts; type: in vivo, rats; conditions: 2.75 hours; peptide 127, conjugate 51 and 13 nmol/kg IV; dCIC 1274 IA, 127 and 51 IV
Description: This study was conducted in an identical manner to the dose-ranging study described further above in this EXAMPLE with regard to timing of test agent administration, collection of blood for CBC, injection of IL-1β, and lavage of the knee following euthanasia. In this study, the blood collected at euthanasia was submitted for both CBC and serum chemistry, and thymus and spleen weights were not measured because there was no evidence of treatment effect for dCIC and peptide-dCIC on these organs in the dose-ranging study. Assessment of biomarkers of steroid exposure in blood of rats as part of a PD study as shown in FIG. 27: # denotes dose administered by IA injection, all other treatments were administered IV. The treatment groups included the following test articles: (i) no IL-1β negative control (denoted “No IL-1b”); (ii); vehicle only control for the peptide-drug conjugate (denoted as “vehicle”), which was (5% DMSO in PBS); (iii) the peptide-only control peptide(SEQ ID NO: 105) at 127 nmol/kg (denoted over “Peptide” as “127”); (iv) 3 dose levels of dCIC, 1274 nmol/kg IA, 127 nmol/kg IV, 51 nmol/kg IV (denoted over “dCIC” as “1274 #”, “127” and “51” respectively); (v) and 2 dose levels of peptide(SEQ ID NO: 105)-DMA-dCIC (51 nmol/kg, 13 nmol/kg) (denoted over “Peptide(SEQ ID NO: 105)-DMA-dCIC” as “51” and “13” respectively), each of (i)-(v) with n=10 animals per dose group, except for no Il-1β control and peptide-only control arms which had n=6 animals per dose group. Doses are listed as nmol/kg. Statistical analysis was conducted using Wilcoxon rank-sum test with correction for multiple comparisons using Holm's method.

[4] = Solubility for formulation; type: physicochemical; conditions: aqueous formulation for systemic delivery
Text: This study was designed to test whether dCIC delivered by a peptide would enable local suppression of inflammation in the joint while reducing systemic exposure to dCIC compared to that obtained when dosing therapeutic levels of dCIC alone. To enable systemic delivery of dCIC (unconjugated), it was formulated in 40% propylene glycol and then heated in order to solubilize the molecule. […] The peptide-drug conjugates of the disclosure can have a water solubility that allows conjugates to be formulated for systemic delivery, wherein at least some of the drugs used in the peptide-drug conjugates may not have sufficient water solubility for systemic administration when not conjugated to peptide. The conjugates comprising those drugs can home, target, migrate to, accumulate in, bind to, be retained by, or be redirected to a cartilage of a subject.

Compound	signal in cartilage (whole body autoradiography) [1]	IL-6 concentration in knee lavage fluid normalized to total protein, compared to vehicle (IL-6)	monocytes (CBC) ([2]; 2.75 hours post-treatment)	Lymphocyte counts as compared to vehicle control ([2]; 2.75 hrs post administration, Dex both doses, dCIC IA or IV)	spleen and thymus weights at euthanasia ([2]; 7 hours post administration)	Lymphocyte counts at euthanasia ([2]; 7 hours post administration, all dose levels)	Total WBC counts [3]	lymphocyte counts [3]	monocyte counts [3]	solubility [4]
^14C-Cys-triamicinolone acetonide [^14C-Cys-TAA, reference compound]	no observable signal									
C[C@]12C=CC(=O)C=C1CC[C@@H]1[C@@H]2[C@@H](O)C[C@@]2(C)[C@H]1C[C@H]1O[C@@H](C3CCCCC3)O[C@]12C(=O)CO [dCIC, des-ciclesonide]		decrease in IL-6 concentrations	dose dependent decrease	reduction in lymphocyte counts	minimal effect on the weight of both organs	either stable or starting to recover	substantial reduction	substantial reduction	substantial reduction	not soluble in water
